This is an account of results in patent US20110262945A1, “GLYCOPROTEIN PRODUCTION METHOD AND SCREENING METHOD” (OTSUKA CHEMICAL CO., LTD., priority 2008, published 2011).

In assay [1] the target is T1, Chymotrypsin (Bos taurus, UniProt P00766). The assay is described as follows: Michaelis-Menten plot of the substrate peptide (degradation by chymotrypsin). Type of assay: biochemical. Details: unit not given here. As to conditions: 30 minutes at 37° C. The protocol:
(§1) Into 1 mL of a 0.1 M phosphate buffer (pH 8.0, containing BSA (0.1 mg/mL)), 3.1 mg of the 14-residue peptide thus synthesized (SEQ ID NO:16) was dissolved to prepare a 2 mM solution. This solution was diluted to prepare substrate solutions having concentrations of 1.6 mM, 1.2 mM, 0.8 mM, 0.4 mM, 0.2 mM, 0.1 mM, and 0.05 mM. Separately, chymotrypsin (1 mg) was dissolved in 1 mL of a 0.1 M phosphate buffer (pH 8.0, containing BSA (0.1 mg/mL)). The resulting solution was diluted 10-fold, and further diluted 10-fold. The above operation was repeated so that a solution of 0.1 μg/mL was prepared. Into the same Eppendorf tube, 50 μL of a substrate solution of each concentration that was sufficiently cooled on ice and 50 μL of the enzyme solution were transferred, followed by incubation for 30 minutes at 37° C. After 30 minutes, the reaction was terminated by addition of 10 μL of 1N hydrochloric acid. Then, 20 μL of the resulting reaction solution was mixed with 80 μL of buffer to make up a total of 100 μL, which was then measured by HPLC. A degradation rate per unit time (a reaction rate per unit time) was calculated from the peak area of HPLC of the reaction product (FIG. 36).

Assay [2] addresses T1, Chymotrypsin. In words: Lineweaver-Burk plot of the substrate peptide (degradation by chymotrypsin). The class given is biochemical. The settings on record: 30 minutes at 37° C. The protocol: as §1, with “mg/mL)), 1.5” for “mg/mL)), 3.1”, “a 1” for “a 2”, “of 1” for “of 1.6”, “mM, 500 μM, 333 μM, 250 μM,” for “mM, 1.2 mM, 0.8 mM, 0.4 mM, 0.2 mM, 0.1 mM,”, “and 200 μM.” for “and 0.05 mM.”, “(FIG. 37).” for “(FIG. 36).”

Molecules are shown by their SMILES. Where a SMILES comes first, the peptide text is derived from it. [ ]: non-standard residue; d: D form. Thz = O=C(O)[C@@H]1CSCN1

Consider `C[C@@H](O)[C@H](NC(=O)[C@H](CCCCN)NC(=O)[C@H](CC(N)=O)NC(=O)[C@H](CC(=O)O)NC(=O)[C@H](CO)NC(=O)CNC(=O)[C@@H]1CSCN1)C(=O)N[C@@H](Cc1ccc(O)cc1)C(=O)NCC(=O)N[C@@H](CC(N)=O)C(=O)N[C@@H](CCCCN)C(=O)N[C@@H](CS)C(=O)N[C@@H](CC(N)=O)C(=O)N[C@@H](Cc1ccccc1)C(=O)O` [substrate peptide] (H-[Thz]GSDNKTYGNKCNF-OH), for which the “V (reaction rate per unit time)” value at Chymotrypsin [1] (substrate 0.05 mM) amounted to 0.013; on Chymotrypsin [1] (substrate 0.1 mM), 0.027; at Chymotrypsin [1] (substrate 0.2 mM), 0.046; on Chymotrypsin [1] (substrate 0.4 mM), 0.068; at Chymotrypsin [1] (substrate 0.6 mM), 0.075; on Chymotrypsin [1] (substrate 0.8 mM), 0.083. Also, the “V (reaction rate per unit time)” value at Chymotrypsin [1] (substrate 1 mM) was found to be 0.087. The “1/V (inverse of the reaction rate)” value at Chymotrypsin [2] (1/Substrate 2 1/mM) was 7.02 mol⁻¹ min⁻¹; at Chymotrypsin [2] (1/Substrate 4 1/mM) it was 8.51 mol⁻¹ min⁻¹; at Chymotrypsin [2] (1/Substrate 6 1/mM), 11.9 mol⁻¹ min⁻¹; on Chymotrypsin [2] (1/Substrate 8 1/mM), 10.9 mol⁻¹ min⁻¹; on Chymotrypsin [2] (1/Substrate 10 1/mM), 14.7 mol⁻¹ min⁻¹.
